Data as given in patent publication US7179819B2, “VLA-4 inhibitor compounds” (Daiichi Pharmaceutical Co., Ltd., priority 1999, dated 2007).
Counter-ions that a name gives are not always drawn.

Q: Which melting point does the source give for Cc1ccccc1NC(=O)Nc1ccc(CC(=O)N2C[C@@H](Oc3ccc(C(=O)O)cc3)C[C@H]2COc2ccc(C(=O)O)cc2)cc1 [Compound 119, 4-[(4S)-(4-carboxyphenoxy)-1-[4-[N′-(2-methylphenyl)uriedo]phenylacetyl]-(2S)-pyrrolidinylmethoxy]benzoic acid] here?
A: Its melting point is 157 to 160 °C.

Q: Which melting point does the source give for COc1cc(CC(=O)N[C@@H](C)COc2ccc(C(=O)O)cc2N)ccc1NC(=O)Nc1ccccc1C [Compound 293, (S)-3-amino-4-[2-[3-methoxy-4-[N′-(2-methylphenyl)ureido]phenylacetylamino]-1-propoxy]benzoic acid] here?
A: The melting point was 200 to 204 °C.

Q: With COc1cc(CC(=O)N2CSC[C@H]2COc2ccc(C(=O)O)cc2)ccc1NC(=O)Nc1ccccc1C (stereo in doubt) [Compound 168, 4-[3-[3-methoxy-4-[N′-(2-methylphenyl)ureido]phenyl]acetyl-4-thiazolidinyl]methoxybenzoic acid] as the compound, how does the melting point read?
A: The melting point was 125 to 128 °C.

Q: Which melting point does the source give for COc1cc(CC(=O)N2CSC[C@H]2COc2ccc(C(=O)O)cc2)ccc1NC(=O)Nc1ccccc1Br (stereo in doubt) [Compound 170, 4-[3-[4-[N′-(2-bromophenyl)ureido]-3-methoxyphenylacetyl]-4-thiazolidinyl]methoxybenzoic acid] here?
A: The melting point was 125 to 133 °C.

Q: For COc1cc(CC(=O)N2C[C@@H](F)C[C@H]2COc2ccc(C(=O)O)cc2)ccc1NC(=O)Nc1ccccc1C(F)(F)F [Compound 76, 4-[(4S)-fluoro-1-[3-methoxy-4-[N′-(2-trifluoromethylphenyl)ureido]phenylacetyl]-(2S)-pyrrolidinylmethoxy]benzoic acid], which melting point is on record?
A: The melting point was 129 to 132 °C.

Q: With COc1cc(CC(=O)N2C[C@@H](NS(=O)(=O)c3cccc4c(N(C)C)cccc34)C[C@H]2COc2ccc(C(=O)O)cc2)ccc1NC(=O)Nc1ccccc1Br [Example 155, 4-[1-[4-[N′-(2-bromophenyl)ureido]-3-methoxyphenylacetyl]-4dansylamino-(2S)-pyrrolidinyl]methoxybenzoic acid] as the compound, how does the melting point read?
A: The melting point was 138 to 141 °C.

Q: With Cc1ccccc1NC(=O)Nc1ccc(CC(=O)N2CCC[C@H]2COC2CCC(C(=O)O)CC2)cc1 (stereo partly drawn) [Compound 177, 4-[[1-[4-[N′-(2-methylphenyl)ureido]phenylacetyl]-(2S)-pyrrolidinyl]methoxy]cyclohexane carboxylic acid] as the compound, how does the melting point read?
A: The melting point was 107 to 111 °C.

Q: For COc1cc(CC(=O)N2CCC[C@H]2C(=O)NC2CCC(C(=O)O)CC2)ccc1NC(=O)Nc1ccccc1C (stereo in doubt) [Compound 180, 4-[[1-[3-methoxy-4-[N′-(2-methylphenyl)ureido]phenylacetyl]-2-pyrrolidinyl]carbonylamino]cyclohexanecarboxylic acid], which melting point is on record?
A: Its melting point is 136 to 142 °C.

Q: With COc1cc(CC(=O)N(CCOc2ccc(C(=O)O)cc2OC)CCN2CCN(C)CC2)ccc1NC(=O)Nc1ccccc1C [Compound 263] as the compound, how does the melting point read?
A: Its melting point is 155 to 160 °C.

Q: With COc1cc(CC(=O)N2C[C@@H](Oc3ccc(C(=O)O)cc3)C[C@H]2COc2ccc(C(=O)O)cc2)ccc1NC(=O)Nc1ccccc1C [Compound 116, 4-[(4S)-(4-carboxyphenoxy)-1-[3-methoxy-4-[N′-(2-methylphenyl)uriedo]phenylacetyl]-(2S)-pyrrolidinylmethoxy]benzoic acid] as the compound, how does the melting point read?
A: Its melting point is 154 to 159 °C.

Q: With COc1cc(CC(=O)N2C[C@@H](O)C[C@H]2COc2ccc(C(=O)O)cc2)ccc1NC(=O)Nc1ccccc1Cl [Compound 107, 4-[1-[4-[N′-(2-chlorophenyl)ureido]-3-methoxyphenylacetyl]-(4S)-hydroxy-(2S)-pyrrolidinyl]methoxybenzoic acid] as the compound, how does the melting point read?
A: Its melting point is 138 to 142 °C (dec.).

Q: With COc1cc(CC(=O)N2CCC[C@H]2COC2CCC(C(=O)O)CC2)ccc1NC(=O)Nc1ccccc1Br (stereo partly drawn) [Compound 176, 4-[1-[4-[N′-(2-bromophenyl)ureido]-3-methoxylphenylacetyl]-(2S)-pyrrolidinyl]methoxy cyclohexanecarboxilic acid] as the compound, how does the melting point read?
A: The melting point was 108 to 111 °C.

Q: For COc1cc(CC(=O)N2CCC[C@H]2CS(=O)(=O)c2cccc(C(=O)O)c2)ccc1NC(=O)Nc1ccccc1C (stereo in doubt) (as salt: salt) [Compound 21, 3-[[1-[3-methoxy-4-[N′-(2-methylphenyl)ureido]phenylacetyl]-2-pyrrolidinyl]methylsulfonyl]benzoic acid], which melting point is on record?
A: The melting point was 243 to 245 °C.

Q: For COc1cc(CC(=O)N2C[C@@H](NS(C)(=O)=O)C[C@H]2COc2ccc(C(=O)O)cc2)ccc1NC(=O)Nc1ccccc1Br [Compound 164, 4-[4-methanesulfonamido-1-[4-[N′-(2-bromophenyl)ureido]-3-methoxyphenylacetyl]-(2S)-pyrrolidinyl]methoxybenzoic acid], which melting point is on record?
A: The melting point was 125 to 128 °C.

Q: For COc1cc(CC(=O)N(C)CCOc2ccc(C(=O)O)cc2N(C)C)ccc1NC(=O)Nc1ccccc1C [Compound 276, 3-dimethylamino-4-[[2-[3-methoxy-4-[N′-(2-methylphenyl)ureido]phenylacetyl]methylamino]ethoxy]benzoic acid], which melting point is on record?
A: Its melting point is 125 to 130 °C.

Q: For COc1cc(CC(=O)N2CCC[C@H]2COc2ccc(C(=O)O)cc2OC)ccc1NC(=O)Nc1ccccc1C [Compound 27], which melting point is on record?
A: The melting point was 132 to 135 °C.

Q: For COc1cc(CC(=O)N2CCCC2C#Cc2ccc(C(=O)O)cc2)ccc1NC(=O)Nc1ccccc1C (stereo not drawn) [Compound 14, 4-[2-[1-[3-methoxy-4-[N′-(2-methylphenyl)ureido]phenylacetyl]-2-pyrrolidinyl]ethynyl]benzoic acid], which melting point is on record?
A: Its melting point is 161 to 164 °C.

Q: With Cc1ccccc1NC(=O)Nc1ccc(CC(=O)N[C@@H](C)COc2ccc(C(=O)O)cc2Cl)cc1 [Compound 274, (S)-3-chloro-4-[2-[4-[N′-(2-methylphenyl)ureido]phenylacetylamino]-1-propoxy]benzoic acid] as the compound, how does the melting point read?
A: The melting point was 228 to 231 °C.

Q: Which melting point does the source give for COc1cc(CC(=O)N2C[C@H](O)C[C@H]2COc2ccc(C(=O)O)cc2)ccc1NC(=O)Nc1ccccc1C [Compound 110, 4-[(4R)-hydroxy-1-[3-methoxy-4-[N′-(2-methylphenyl)ureido]phenylacetyl]-(2S)-pyrrolidinylmethoxy]benzoic acid] here?
A: The melting point was 178 to 182 °C.

Q: For O=C(Nc1ccc(CC(=O)N2C[C@@H](F)C[C@H]2COc2ccc(C(=O)O)cc2)cc1)Nc1c(Cl)cccc1Cl [Compound 87, 4-[1-[4-[N′-(2,6-dichlorophenyl)ureido]phenylacetyl]-(4S)-fluoro-(2S)-pyrrolidinyl]methoxy benzoic acid], which melting point is on record?
A: The melting point was 168 to 172 °C (dec.).

Q: For COc1cc(CC(=O)N2C[C@@H](Cl)C[C@H]2COc2ccc(C(=O)O)cc2)ccc1NC(=O)Nc1ccccc1Br [Compound 103, 4-[1-[4-[N′-(2-bromophenyl)ureido]-3-methoxyphenylacetyl]-(4S)-chloro-(2S)-pyrrolidinyl]methoxybenzoic acid], which melting point is on record?
A: Its melting point is 127 to 132 °C.

Q: With COc1cc(CC(=O)NCCOc2ccc(C(=O)O)cc2OC)ccc1NC(=O)Nc1ccccc1C [Compound 255, 3-methoxy-4-[2-[3-methoxy-4-[N′-(2-methylphenyl)ureido]phenylacetyl]aminoethoxy]benzoic acid] as the compound, how does the melting point read?
A: Its melting point is 180 to 181 °C.

Q: For COc1cc(CC(=O)N2C[C@@H](F)C[C@H]2COc2ccc(C(=O)O)cc2)ccc1NC(=O)Nc1c(Cl)cccc1Cl [Compound 88, 4-[1-[4-[N′-(2,6-dichlorophenyl)ureido]-3-methoxyphenylacetyl]-(4S)-fluoro-(2S)-pyrrolindinyl]methoxybenzoic acid], which melting point is on record?
A: The melting point was 162 to 168 °C (dec.).

Q: Which melting point does the source give for COc1cc(CC(=O)N2CC[C@@H](Oc3ccc(C(=O)O)cc3)C2)ccc1NC(=O)Nc1ccccc1Br [Compound 187, 4-[1-[4-[N′-(2-bromophenyl)ureido]-3-methoxyphenylacetyl]-(3R)-pyrrolidinyloxy]benzoic acid] here?
A: The melting point was 175 to 177 °C.

Q: Which melting point does the source give for COc1cc(CC(=O)N2C3CCCCC3C[C@H]2COc2ccc(C(=O)O)cc2)ccc1NC(=O)Nc1ccccc1Br (stereo partly drawn) [Compound 167, 4-[1-[4-[N′-(2-bromophenyl)ureido]-3-methoxyphenylacetyl]-(2S)-octahydroindolylmethoxy]benzoic acid] here?
A: The melting point was 118 to 123 °C.

Q: For COc1cc(CC(=O)N(C)CCOc2ccc(C(=O)O)cc2C(=O)O)ccc1NC(=O)Nc1ccccc1C (as salt: salt) [Compound 254, 4-[[2-[3-methoxy-4-[N′-(2-methylphenyl)ureido]phenylacetyl]methylamino]ethoxy]isophthalic acid], which melting point is on record?
A: Its melting point is 139 to 141 °C.

Q: For COc1cc(CC(=O)N2CC[C@H](Oc3ccc(C(=O)O)cc3)C2)ccc1NC(=O)Nc1ccccc1Cl [Compound 183, 4-[1-[4-[N′-(2-chlorophenyl)ureido]-3-methoxyphenylacetyl]-(3S)-pyrrolidinyloxy]benzoic acid], which melting point is on record?
A: Its melting point is 190 to 193 °C.

Q: Which melting point does the source give for COc1cc(CC(=O)N[C@@H](C)COc2ccc(C(=O)O)cc2)ccc1NC(=O)Nc1ccccc1C [Compound 272, (S)-4-[2-[3-methoxy-4-[N′-(2-methylphenyl)ureido]phenylacetylamino]-1-propoxy]benzoic acid] here?
A: Its melting point is 198 to 201 °C.

Q: For Cc1ccccc1NC(=O)Nc1ccc(CC(=O)N2CCCC2/C=C/c2ccc(C(=O)O)cc2)cc1 (stereo not drawn) [Compound 6, (E)-4-[2-[1-[4-[N′-(2-methylphenyl)ureido]phenylacetyl]-2-pyrrolidinyl]ethenyl]benzoic acid], which melting point is on record?
A: The melting point was 165 to 168 °C.

Q: For Cc1cc(CC(=O)N2C[C@@H](F)C[C@H]2COc2ccc(C(=O)O)cc2)ccc1NC(=O)Nc1c(Cl)cccc1Cl [Example 83, 4-[(2S, 4S)-1-[4-[N′-(2,6-Dichlorophenyl)ureido]-3-methylphenylacetyl]4-fluoro-2-pyrrolidinyl]methoxybenzoic acid], which melting point is on record?
A: The melting point was 174 to 180 °C (dec.).

Q: Which melting point does the source give for COc1cc(CC(=O)N2CCN(c3ccc(C(=O)O)cc3)CC2)ccc1NC(=O)Nc1ccccc1C [Compound 259] here?
A: The melting point was 240 to 245 °C.

Q: Which melting point does the source give for COc1cc(CC(=O)N2CC[C@H](Oc3ccc(C(=O)O)cc3)C2)ccc1NC(=O)Nc1ccccc1C [Compound 182, 4-[1-[3-methoxy-4-[N′-(2-methylphenyl)ureido]phenylacetyl]-(3S)-pyrrolidinyloxy]benzoic acid] here?
A: Its melting point is 131 to 135 °C.

Q: Which melting point does the source give for COc1cc(CC(=O)N(Cc2ccccc2)[C@@H](C)COc2ccc(C(=O)O)cc2Cl)ccc1NC(=O)Nc1ccccc1F [Compound 287, (S)-3-chloro-4-[2-[N-benzyl-N-[3-methoxy-4-[N′-(2-fluorophenyl)ureido]phenylacetyl]amino]-1-propoxy]benzoic acid] here?
A: Its melting point is 125 to 130 °C.
